Assay [1] has as its system monkey meibomian gland epithelial cell. Put plainly: Test Example 3: increase in cell number, cultured monkey meibomian gland epithelial cell (Cell Counting Kit-8). The note with it: 48 + 48 hours; for Cell proliferation (%): no addition group = 100%, average ± standard deviation, N = 5. In kind it is cell-based, cynomolgus monkey. The method, then: A female cynomolgus monkey (Environmental Biological Life Science Research Center) was used. The experimental animal was used according to the International Guiding Principles for Biomedical Research Involving Animals.
A meibomian gland epithelial cell was prepared from a monkey eyelid. An eyelid was isolated, and stored in Dulbecco's phosphate buffered saline (D-PBS; Invitrogen), and this was transferred to a clean bench. The following cell preparation procedures were all performed sterilely.
After the isolated eyelid was immersed in 80% ethanol for 30 seconds, the eyelid was washed with D-PBS with 1% penicillin-streptomycin (Invitrogen) added thereto three times, and transferred to a minimum essential medium (MEM; Invitrogen). A fat tissue and a muscle tissue surrounding a meibomian gland tissue were removed under a stereomicroscope, and this was transferred to MEM containing 0.475 U/mL of collagenase A (Roche Diagnostics) and 2.4 U/mL of dispase II (Roche Diagnostics), and incubated at 37° C. overnight. After completion of incubation, the enzyme-treated tissue was placed again under the stereomicroscope, eyelashes and an eyelid connective tissue were removed, and a meibomian gland tissue was isolated. To the isolated gland tissue was added 1 mL of trypsin-EDTA (Invitrogen), and this was incubated at 37° C. for 5 minutes. After incubation, to this was added 9 mL of MEM containing 10% FBS to stop the enzymatic reaction, then, suction and exhaustion were repeated five times using a 10 mL pipette and, further, five times using an injection syringe equipped with a 21 G injection needle to disperse tissue-constituting cells. […] The cell suspension which had passed through the filter was recovered in a 50 mL centrifuge tube, and subjected to centrifugation at room temperature and 1,500 rpm for 5 minutes. To a cell layer containing an objective cell obtained by centrifugation was added 80 μL of D-PBS containing 0.5% bovine serum albumin (BSA; Sigma-Aldrich) to sufficiently suspend the cell, to this was added 20 μL of Anti-Fibroblast Microbeads (Militenyi Biotec), and this was allowed to stand at room temperature for 30 minutes. After completion of the reaction with an antibody, to this was added 2 mL of D-PBS containing 0.5% BSA, and this was subjected again to centrifugation at room temperature and 1,500 rpm for 5 minutes. To a cell layer containing an objective cell obtained by centrifugation was added 1 mL of D-PBS containing 0.5% BSA to sufficiently suspend the cell, and this was added dropwise to an LD column (Militenyi Biotec) equilibrated in advance using a column washing solution (D-PBS containing 2 mM EDTA (Dojindo Laboratories) and 0.5% BSA). Then, 2 mL of the column washing solution was added dropwise to the LD column. […] The cell recovered in the centrifuge tube was subjected again to centrifugation at room temperature and 1,500 rpm for 5 minutes to remove the supernatant. To this precipitation was added 1 mL of Defined Keratinocyte-Serum Free Medium (DK-SFM; Invitrogen) to suspend the cell and thereby, a meibomian gland epithelial cell suspension was prepared. The prepared cell was seeded on a culture dish (IWAKI) for cell culturing having a diameter of 3.5 cm which had been coated with a type I collagen solution (Nitta Gelatin Inc.) in advance, and to which 3 mL of DK-SFM had been added. The seeded cell was cultured in an incubator (SANYO) set at 37° C., 5% CO2, 95% air, and 100% humidity, and the culture medium was exchanged with a fresh culture medium every 48 hours until the test day.
Each test substance was dissolved in ethanol (Wako Pure Chemical Industries, Ltd.) to a 200-fold concentration of a final concentration in the culture medium, and this was stored at −80° C. until immediately before use.
As a culture dish for a cell proliferation promotion test, a 96-well culture dish for tissue culture (Corning) was used.
(In general: Formazan colour is commonly taken as a measure of viable cells.)

Assay [2] relates to normal human corneal epithelial cell. Briefly: Test Example 5: increase in cell number, normal human corneal epithelial cell, 24 hours (Cell Counting Kit-8). In kind it is cell-based. The note with it: no addition group = 100%, average ± standard deviation, N = 3 to 4. On the procedure: A normal human corneal epithelial cell (KURABO) was used.
As the test substance, the following compounds were used. PPARδ agonist: L-165041 (Sigma-Aldrich), GW-501516 (Alexis)
In addition, as a positive control for confirming the cell proliferation promoting effect, a medium in which a mouse-derived epithelial growth factor (mEGF) contained in an HCGS proliferation additive set (KURABO) was added to a basal medium (basal medium+1 ng/mL mEGF) was used.
This cell suspension was seeded on a fibronectin-coated multiwell plate (24 well, BECTON DICKINSON) so that the cell number became 2×10^4 cells/500 μL/well (since the bottom area is 2 cm^2, the number is 1×10^4 cells/cm^2).
Further, 24 hours thereafter, the culture medium was exchanged with each 400 μL of the following culture media. • [1] Only basal medium (no addition group) • [2] Basal medium+mEGF (final concentration: 1 ng/mL; positive control group) • [3] Basal medium+L-165041 (final concentration: 0.01 μM and 0.1 μM) • [4] Basal medium+GW-501516 (final concentration: 0.001 μM and 0.01 μM)

Each structure is given as a SMILES string.

In the case of `CCCc1c(OCCCOc2ccc(OCC(=O)O)cc2)ccc(C(C)=O)c1O` [L-165041, (4-(3-(4-acetyl-3-hydroxy-2-propyl)phenoxy)propoxyphenoxy)acetic acid], the “Cell proliferation (%)” value in assay [1] (10^−6 M) amounted to 142.8 ± 5.4%; in assay [1] (10^−7 M), 136.1 ± 4.7%; in assay [2] (10^−7 M), 127.8 ± 6.0%; in assay [2] (10^−8 M), 128.1 ± 5.3%. The “cell proliferation compared to the no addition group (in words)” value in assay [1] (p<0.01 where significant) is reported as “significantly higher than in the no addition group”.

(Values after patent US9096538B2, “Pharmaceutical comprising PPAR agonist” (Senju Pharmaceutical Co., Ltd., priority 2005, dated 2015).)
